Test results as given in US20260256792A1, “TREATMENT OF CHRONIC SPONTANEOUS URTICARIA BY ADMINISTERING (R)-2-[3-[4-AMINO-3-(2-FLUORO-4-PHENOXY-PHENYL)PYRAZOLO[3,4-D]PYRIMIDIN-1-YL]PIPERIDINE-1-CARBONYL]-4-METHYL-4-[4-(OXETAN-3-YL)PIPERAZIN-1-YL]PENT-2-ENENITRILE” (priority 2023, published 2026).

Tested on: moderate-to-severe chronic spontaneous urticaria (CSU)
Test: Phase 2 CSU study: hives severity score over 7 days (HSS7)
Assay type: in vivo, human
Design: key to HSS7 Change from baseline, Median / HSS7, Median / HSS7, Max / HSS7 Change from baseline, Q1 / HSS7 Change from baseline, Q3 / HSS7 Change from baseline, Max: 7-day sum of daily hive scores, each 0 = none to 3 = >50 hives
From the text: The study comprises a 12 week, randomized, double-blind, placebo-controlled, multi-center, dose-ranging efficacy and safety phase, followed by a 40 week open label extension (OLE) phase (see FIG. 1).
The study consists of three phases and an optional OLE phase.
The UAS is a validated PRO measure. The daily UAS is the sum of the daily Hive Severity Score (HSS, ranging from 0=None to 3=more than 50 hives) and the daily Itch Severity Score (ISS, ranging from 0=None to 3=intense), the 2 key urticaria signs and symptoms which are wheals and itch. The daily UAS scores range from 0 to 6 point/day. Daily UAS scores are summed over 7-day period to create the UAS7, ranging from 0 to 42, and are composed of the HSS7 and ISS7 components. […] Patients were to complete the UAS using the e-diary. The e-diary was to be used once daily on the same time of each day recording of participant's answers to the urticaria activity score over 7 days (UAS7) questionnaire. For participants who entered the OLE phase, their answers to the UAS7 questionnaire were also to be collected from Week 20 to Week24 and from Week 48 to Week 52.
The following secondary endpoints were to be analyzed using the same approach as for the primary endpoint: • Change from baseline in UAS7 at Week 4 • Change from baseline in UAS7 at Week 12 (for US and US reference countries) • Change from baseline in ISS7 at Week 12 (except US and US reference countries) • Change from baseline in HSS7 at Week 12

[1] = Week 10, 400 mg BID, Omalizumab-Naïve Population
[2] = Week 10, 400 mg BID, Patients with Prior Omalizumab Use
[3] = Week 10, 400 mg QPM, Omalizumab-Naïve Population
[4] = Week 10, 400 mg QPM, Patients with Prior Omalizumab Use
[5] = Week 10, 400 mg TID, Omalizumab-Naïve Population
[6] = Week 10, 400 mg TID, Patients with Prior Omalizumab Use
[7] = Week 11, 400 mg BID, Omalizumab-Naïve Population
[8] = Week 11, 400 mg BID, Patients with Prior Omalizumab Use
[9] = Week 11, 400 mg QPM, Omalizumab-Naïve Population
[10] = Week 11, 400 mg QPM, Patients with Prior Omalizumab Use
[11] = Week 11, 400 mg TID, Omalizumab-Naïve Population
[12] = Week 11, 400 mg TID, Patients with Prior Omalizumab Use
[13] = Week 12, 400 mg BID, Omalizumab-Naïve Population
[14] = Week 12, 400 mg BID, Patients with Prior Omalizumab Use
[15] = Week 12, 400 mg QPM, Omalizumab-Naïve Population
[16] = Week 12, 400 mg QPM, Patients with Prior Omalizumab Use
[17] = Week 12, 400 mg TID, Omalizumab-Naïve Population
[18] = Week 12, 400 mg TID, Patients with Prior Omalizumab Use

`CC(C)(C=C(C#N)C(=O)N1CCC[C@@H](n2nc(-c3ccc(Oc4ccccc4)cc3F)c3c(N)ncnc32)C1)N1CCN(C2COC2)CC1` [rilzabrutinib, (R)-2-[3-[4-amino-3-(2-fluoro-4-phenoxy-phenyl)pyrazolo[3,4-d]pyrimidin-1-yl]piperidine-1-carbonyl]-4-methyl-4-[4-(oxetan-3-yl)piperazin-1-yl]pent-2-enenitrile] was tested, and the “HSS7, Median” value [1] was 6.50, the “HSS7 Change from baseline, Mean (SD)” value [1] was −6.95 (5.65) and the “HSS7 Change from baseline, Median” value [1] was −6.50. For the same molecule, the “HSS7 Percent change from baseline, Mean (SD)” value (from here on “HSS7 Percent change … (SD)”) [1] was −53.45 (42.56) %, the “HSS7 Percent change from baseline, Median” value (“HSS7 Percent change … Median” for short) [1] was −47.73% and the “HSS7, Mean (SD)” value [2] was 5.20 (7.19). The “HSS7, Median” value [2] was 2.00, the “HSS7 Change from baseline, Mean (SD)” value [2] was −9.60 (9.13) and the “HSS7 Change from baseline, Median” value [2] was −12.00. For the same molecule, the “HSS7 Percent change … (SD)” value [2] was −58.10 (53.18) %, the “HSS7 Percent change … Median” value [2] was −90.48% and the “HSS7, Mean (SD)” value [3] was 9.88 (5.93). The “HSS7, Median” value [3] was 8.00, the “HSS7 Change from baseline, Mean (SD)” value [3] was −5.27 (5.66) and the “HSS7 Change from baseline, Median” value [3] was −4.00. The “HSS7 Percent change … (SD)” value [3] was −33.86 (34.68) %, the “HSS7 Percent change … Median” value [3] was −28.64% and the “HSS7, Mean (SD)” value [4] was 8.00 (NC). The “HSS7, Median” value [4] was 8.00, the “HSS7 Change from baseline, Mean (SD)” value [4] was −12.00 (NC) and the “HSS7 Change from baseline, Median” value [4] was −12.00. For the same molecule, the “HSS7 Percent change … (SD)” value [4] was −60.00 (NC) %, the “HSS7 Percent change … Median” value [4] was −60.00% and the “HSS7, Mean (SD)” value [5] was 5.87 (5.06). For the same molecule, the “HSS7, Median” value [5] was 4.50, the “HSS7 Change from baseline, Mean (SD)” value [5] was −8.20 (5.62) and the “HSS7 Change from baseline, Median” value [5] was −9.00. The “HSS7 Percent change … (SD)” value [5] was −57.32 (34.80) %, the “HSS7 Percent change … Median” value [5] was −63.10% and the “HSS7, Mean (SD)” value [6] was 3.00 (4.65). For the same molecule, the “HSS7, Median” value [6] was 1.00, the “HSS7 Change from baseline, Mean (SD)” value [6] was −13.03 (7.21) and the “HSS7 Change from baseline, Median” value [6] was −13.00. The “HSS7 Percent change … (SD)” value [6] was −79.31 (25.96) %, the “HSS7 Percent change … Median” value [6] was −91.50% and the “HSS7, Mean (SD)” value [7] was 7.13 (7.07). The “HSS7, Median” value [7] was 5.83, the “HSS7 Change from baseline, Mean (SD)” value [7] was −7.34 (6.14) and the “HSS7 Change from baseline, Median” value [7] was −7.00. The “HSS7 Percent change … (SD)” value [7] was −52.82 (41.27) %, the “HSS7 Percent change … Median” value [7] was −54.55% and the “HSS7, Mean (SD)” value [8] was 4.80 (7.46). The “HSS7, Median” value [8] was 0.00, the “HSS7 Change from baseline, Mean (SD)” value [8] was −10.00 (9.67) and the “HSS7 Change from baseline, Median” value [8] was −12.00. The “HSS7 Percent change … Median” value [8] was −100.00%, the “HSS7, Mean (SD)” value [9] was 10.18 (6.18) and the “HSS7, Median” value [9] was 9.33. The “HSS7 Change from baseline, Mean (SD)” value [9] was −5.18 (5.64), the “HSS7 Change from baseline, Median” value [9] was 3.00 and the “HSS7 Percent change … (SD)” value [9] was −33.21 (36.21) %. The “HSS7 Percent change … Median” value [9] was −30.00%, the “HSS7, Mean (SD)” value [10] was 9.00 (NC) and the “HSS7, Median” value [10] was 9.00. The “HSS7 Change from baseline, Mean (SD)” value [10] was −11.00 (NC), the “HSS7 Change from baseline, Median” value [10] was −11.00 and the “HSS7 Percent change … (SD)” value [10] was −55.00 (NC) %. The “HSS7 Percent change … Median” value [10] was −55.00%, the “HSS7, Mean (SD)” value [11] was 6.17 (5.40) and the “HSS7, Median” value [11] was 5.83. For the same molecule, the “HSS7 Change from baseline, Mean (SD)” value [11] was −7.90 (6.07), the “HSS7 Change from baseline, Median” value [11] was −8.00 and the “HSS7 Percent change … (SD)” value [11] was −55.30 (37.59) %. For the same molecule, the “HSS7 Percent change … Median” value [11] was −61.11%, the “HSS7, Mean (SD)” value [12] was 2.67 (4.84) and the “HSS7, Median” value [12] was 0.00. For the same molecule, the “HSS7 Change from baseline, Mean (SD)” value [12] was −13.36 (7.26), the “HSS7 Change from baseline, Median” value [12] was −13.00 and the “HSS7 Percent change … (SD)” value [12] was −82.14 (27.76) %. For the same molecule, the “HSS7 Percent change … Median” value [12] was −100.00%, the “HSS7, Mean (SD)” value [13] was 7.52 (7.21) and the “HSS7, Median” value [13] was 7.00. For the same molecule, the “HSS7 Change from baseline, Mean (SD)” value [13] was −7.09 (6.54), the “HSS7 Change from baseline, Median” value [13] was −4.50 and the “HSS7 Percent change … (SD)” value [13] was −49.56 (40.81) %. For the same molecule, the “HSS7 Percent change … Median” value [13] was −37.50%, the “HSS7, Mean (SD)” value [14] was 4.25 (8.50) and the “HSS7, Median” value [14] was 0.00. The “HSS7 Change from baseline, Median” value [14] was −14.50, the “HSS7 Percent change … (SD)” value [14] was −75.00 (50.00) % and the “HSS7 Percent change … Median” value [14] was −100.00%. For the same molecule, the “HSS7, Median” value [15] was 8.58, the “HSS7 Change from baseline, Mean (SD)” value [15] was −4.85 (5.63) and the “HSS7 Change from baseline, Median” value [15] was −4.00. The “HSS7 Percent change … (SD)” value [15] was −31.20 (34.88) %, the “HSS7 Percent change … Median” value [15] was −33.18% and the “HSS7, Mean (SD)” value [16] was 9.00 (NC). For the same molecule, the “HSS7, Median” value [16] was 9.00, the “HSS7 Change from baseline, Mean (SD)” value [16] was −11.00 (NC) and the “HSS7 Change from baseline, Median” value [16] was −11.00. For the same molecule, the “HSS7 Percent change … (SD)” value [16] was −55.00 (NC) %, the “HSS7 Percent change … Median” value [16] was −55.00% and the “HSS7, Mean (SD)” value [17] was 5.23 (4.86). For the same molecule, the “HSS7, Median” value [17] was 4.08, the “HSS7 Change from baseline, Mean (SD)” value [17] was −8.77 (5.84) and the “HSS7 Change from baseline, Median” value [17] was −8.00. The “HSS7 Percent change … (SD)” value [17] was −60.93 (34.27) %, the “HSS7 Percent change … Median” value [17] was −64.29% and the “HSS7, Mean (SD)” value [18] was 3.20 (5.22). The “HSS7, Median” value [18] was 0.00, the “HSS7 Change from baseline, Mean (SD)” value [18] was −14.40 (7.60) and the “HSS7 Change from baseline, Median” value [18] was −17.00. The “HSS7 Percent change … (SD)” value [18] was −78.57 (29.45) % and the “HSS7 Percent change … Median” value [18] was −100.00%.
